Results reported in patent US20210345602A1, “MAMMAL CELL PRESERVING SOLUTION CONTAINING ACARBOSE OR STACHYOSE” (OTSUKA PHARMACEUTICAL FACTORY, INC., priority 2018, published 2021).

Key:
Format in all cases: cell-based
[1] = tested on: bone marrow-derived human mesenchymal stem cells (hMSCs); experiment: Viability of hMSCs after preservation in test isotonic liquid, trypan blue staining method; conditions: for effect of suppressing the decrease in cell viability (screening of 93 saccharides): saccharide 87.5 mM in Lactec injection, compared with 88 mM trehalose or lactated Ringer's solution; for Cell viability (%) (Mean ± Standard deviation [SD]): n=3
Procedure: [1] 4×10^5 hMSCs were added to a 75-cm^2 flask and cultured at 37° C. in a 5% CO2 incubator in the presence of a medium. The state of the cells was observed under a microscope, and the cells were cultured until about 80% confluent. The medium was removed, and the hMSCs were rinsed with 8-mL PBS(−). The PBS(−) was removed, and 3.75-mL trypsin-EDTA (manufactured by Lonza) was added thereto, and the mixture was left standing at room temperature for 5 minutes. The hMSCs were observed under a microscope and slowly shaken until about 90% of them were exfoliated. 3.75 mL of medium was added thereto, to stop the trypsin reaction, and the hMSCs were collected by pipetting and transferred to a 50-mL centrifuge tube. […] Centrifugation was performed at 600×g and 22° C. for 5 minutes. The supernatant (medium) was removed, 1.5 mL of PBS(−) was added thereto, and the precipitate (hMSCs) was suspended. The number of cells was measured and adjusted with PBS(−) to 5×10^3 cells/mL, to prepare PBS containing hMSCs. [Method for Preserving hMSCs in Each Test Isotonic Liquid]
[1] 0.5 mL of the PBS containing hMSCs prepared was dispensed into each tube and centrifuged (at 600×g for 5 minutes). […] [Analysis of Viability of hMSCs by Trypan Blue Staining Method]
[1] […] Thereafter, 20 μL of a trypan blue staining solution (manufactured by Gibco) was mixed thereto. As a comparative control, 20 μL (equivalent to 1×10^4 cells) was collected from each PBS containing hMSCs before suspension in each test isotonic liquid (before preservation at 4° C.) and transferred to a tube. Thereafter, 20 μL of a trypan blue staining solution was mixed thereto. The total number of cells and the number of trypan blue-positive cells (dead cells) were measured under a microscope using OneCell Counter (manufactured by Bio Medical Science), to calculate the percentage of trypan blue-negative cells to the total number of cells, that is, the cell viability.

rat hepatocytes = experiment: Viability of rat hepatocytes after preservation in test isotonic liquid, trypan blue staining method; conditions: rat hepatocytes preserved at 4° C. for 24 hours; n=6; Pre 70.8±3.32
Procedure: A stock tube of rat hepatocytes was taken out of a liquid nitrogen tank and thawed in a constant temperature bath at 37° C. […] Immediately after thawing, it was allowed to stand on ice and transferred to a 50-mL centrifuge tube. […] 25 mL of hepatocyte wash medium (which will be hereinafter referred to as “wash medium”) (manufactured by GIBCO) cooled with ice was added dropwise. […] Centrifugation was performed at 50×g and 4° C. for 3 minutes. […] The supernatant (wash medium) was removed, 6 mL of wash medium was added thereto, and the precipitate (rat hepatocytes) was suspended by pipetting 2 to 3 times. […] The number of cells was measured and adjusted with a wash medium to 5×10^3 cells/mL, to prepare a wash medium containing rat hepatocytes.
0.5 mL of the wash medium containing rat hepatocytes prepared was dispensed into each tube and centrifuged (at 50×g and 4° C. for 3 minutes). […] The supernatant (wash medium) was removed, and the precipitate (rat hepatocytes) was suspended in 0.5 mL of each test isotonic liquid and preserved at 4° C. for 24 hours.

[2] = tested on: bone marrow-derived human mesenchymal stem cells (hMSCs); experiment: Cell aggregation level of hMSCs after preservation, phase contrast microscope; conditions: hMSCs preserved at 25° C. for 48 hours; 88 mM acarbose in Lactec injection
Procedure: The hMSCs were preserved in each test isotonic liquid at 25° C. for 48 hours according to the method described in Example 1. Each test isotonic liquid containing the hMSCs after preservation was partially collected, and the presence or absence of cell aggregates in which three or more cells gather together was observed under a phase contrast microscope.

CD8-positive T cells = experiment: Viability of expansion-cultured CD8-positive T cells after preservation, trypan blue staining method; conditions: CD8-positive T cells preserved at 5° C. for 24 hours; n=3
Procedure: Cryopreserved CD8-positive T cells were thawed, then washed with a lymphocyte culture medium (LGM3, manufactured by Lonza), and incubated in the medium for about 1 hour (at 37° C. in 5% CO2). […] The medium containing the CD8-positive T cells was separated and centrifuged (at 300×g and room temperature for 10 minutes). […] The supernatant was removed, and the cells were suspended in TLY CULTURE kit 25 (manufactured by GC LYMPHOTEC Inc.) and the CD8-positive T cells were expansion-cultured under conditions of 37° C. and 5% CO2 for 7 days.
CD8-positive T cells (with a cell concentration of about 1.1×10^6 cells/5 mL) expansion-cultured for 7 days were washed with Lactec injection containing 88 mM trehalose, dispensed in Stemfull tube (manufactured by Sumitomo Bakelite Co., Ltd.), and then centrifuged (at 300×g and room temperature for 10 minutes). […] The supernatant was removed, and the precipitate (CD8-positive T cells) was suspended in 3 kinds of test isotonic liquids (Lactec injection containing 88 mM acarbose, Lactec injection containing 88 mM trehalose, and Lactec injection) and then preserved at 5° C. for 24 hours. […] After preservation for 24 hours, the cell viability was measured according to the method described in procedure [2] above.

[3] = hMSCs preserved at 4° C. for 3 days
[4] = hMSCs preserved at 4° C. for 2 days, Pre 94.7±2.1
[5] = hMSCs preserved at 4° C. for 3 days, α-glucosidase inhibitors 175 mM, Pre 98.5±0.6
[6] = hMSCs preserved at 5° C. for 4 days, Pre 93.7±2.0%

Row | Structure (SMILES) | effect of suppressing the decrease in cell viability (screening of 93 saccharides) [1, 3] | Cell viability (%) (Mean ± Standard deviation [SD]) [1, 4] | other results
1 | CC1(C)O[C@H](CO)[C@@H](CO)O1 [(−)-2,3-O-iso propylidene-D-threitol] | cell viability decreased |  | 
2 | O=C[C@H](O)[C@@H](O)[C@@H](O)[C@H](O)C(=O)O [D-galacturonic acid] | cell viability decreased |  | 
3 | O=C(O)[C@H](O)[C@@H](O)[C@H](O[C@@H]1O[C@H](CO)[C@H](O)[C@H](O)[C@H]1O)[C@H](O)CO [D-lactobionic acid] | cell viability decreased |  | 
4 | N[C@@H]1C(O)O[C@H](CO)[C@@H](O)[C@@H]1O (stereo partly drawn) [D-mannosamine] | cell viability decreased |  | 
5 | C[C@H]1O[C@H](O[C@H]2[C@H](O)[C@@H](O)[C@@H](O[C@H]3[C@H](O)[C@@H](O)C(O)O[C@@H]3CO)O[C@@H]2CO)[C@H](O)[C@@H](O)[C@@H]1N[C@H]1C=C(CO)[C@@H](O)[C@H](O)[C@H]1O (stereo partly shown) [acarbose] | higher effect of suppressing the decrease in cell viability than trehalose | cell viability increased | Cell viability (%) (Mean ± Standard deviation [SD]) [1, 5]: cell viability increased; Cell viability (%) (Mean ± Standard deviation [SD]) (rat hepatocytes): cell viability significantly increased; presence or absence of cell aggregates (three or more cells) [2]: almost no cell aggregates were observed; Cell viability (%) (Mean ± Standard deviation [SD]) 24 hours (CD8-positive T cells): cell viability significantly increased
6 | OC[C@H]1O[C@H](O[C@H]2[C@H](O)[C@@H](O)[C@@H](O[C@H]3[C@H](O)[C@@H](O)[C@@H](O[C@H]4[C@H](O)[C@@H](O)C(O)O[C@@H]4CO)O[C@@H]3CO)O[C@@H]2CO)[C@H](O)[C@@H](O)[C@@H]1O (stereo partly shown) [maltotetraose] |  | such an increase in cell viability was not observed | 
7 | OCCN1C[C@H](O)[C@@H](O)[C@H](O)[C@H]1CO [miglitol] |  |  | Cell viability (%) (Mean ± Standard deviation [SD]) [1, 5]: cell viability was almost unchanged
8 | OC[C@H]1O[C@@](CO)(OC[C@@]2(OC[C@@]3(O[C@H]4O[C@H](CO)[C@@H](O)[C@H](O)[C@H]4O)O[C@H](CO)[C@@H](O)[C@@H]3O)O[C@H](CO)[C@@H](O)[C@@H]2O)[C@@H](O)[C@@H]1O [nystose] |  | such an increase in cell viability was not observed | 
9 | OC[C@H]1O[C@H](OC[C@H]2O[C@H](OC[C@H]3O[C@H](O[C@]4(CO)O[C@H](CO)[C@@H](O)[C@@H]4O)[C@H](O)[C@@H](O)[C@@H]3O)[C@H](O)[C@@H](O)[C@H]2O)[C@H](O)[C@@H](O)[C@H]1O [stachyose] | higher effect of suppressing the decrease in cell viability than trehalose | cell viability increased | Cell viability (%) (Mean ± Standard deviation [SD]) [1, 6]: cell viability significantly increased at any concentration
10 | OC[C@H]1O[C@H](O[C@H]2O[C@H](CO)[C@@H](O)[C@H](O)[C@H]2O)[C@H](O)[C@@H](O)[C@@H]1O [trehalose] |  |  | Cell viability (%) (Mean ± Standard deviation [SD]) [1, 6]: cell viability increased; Cell viability (%) (Mean ± Standard deviation [SD]) 24 hours (CD8-positive T cells): cell viability increased
11 | OCC(CO)N[C@H]1C[C@](O)(CO)[C@@H](O)[C@H](O)[C@H]1O [voglibose] |  |  | Cell viability (%) (Mean ± Standard deviation [SD]) [1, 5]: cell viability was almost unchanged
